A value given as a limit tells only on which side of the number the result lay.

This note sets out measurements from a melting point compilation (Tetko et al.; mined from patent text by program, amines drawn as free bases though some values may be those of a salt).

One may read the melting point as the temperature, or range, at which the solid turns liquid.

The compound `N#Cc1cccc2c1CCC2O` (centres undefined) showed a melting point of 98 °C.
In turn, `CCCS(=O)c1nc(OS(C)(=O)=O)c(Cl)cc1Cl` (centres undefined) registered a melting point of 92 to 94 °C.
`CCCCNc1nnc(NCCCC)c2cc3c(OC)cccc3cc12` showed a melting point of 178 to 180 °C.
With `N#CC(O)C(=O)c1ccccc1` (centres undefined), the melting point was in the range of 100 to 105 °C.
In turn, `CC1CC(=O)c2c(SCc3ccccc3)ccc(-c3ccccn3)c2C1` (centres undefined) returned a melting point of 163 to 165 °C.
As to `O=c1[nH]c2ncc(-c3ccc(O)nc3)nc2n1CC1CCCCC1`, the melting point was more than 400 °C.
`S=c1nc(NCCCOc2cccc(CN3CCCCC3)c2)cc[nH]1` showed a melting point of 180 to 181 °C.
In turn, `CS(=O)(=O)c1ccc(C(=O)C(C#N)C(=O)C2CC2)c(Cl)c1-c1nccs1` (centres undefined) came in with a melting point of 162 to 164 °C.
The value for `O=Cc1ccc(OCc2ccc3ccccc3c2)cc1` was 103 to 109 °C; that for `O=Cc1ccc(C=Cc2ccc(C=O)cc2)cc1` was 169 °C; that for `C#Cc1cc(C)c(Oc2ccc(N)c(Nc3ccc(C#N)cc3)n2)c(C)c1` was 79 to 82 °C.
`CCOC(=O)N1CCN(c2nc(C)nc3c2OCC(=O)N3)CC1`: the melting point fell in the range of 197 to 198 °C.
`CCCC1=Cc2c(c(C)c(C)c3oc(C(=O)O)cc23)C1=O` displayed a melting point of 242 °C.
Turning to `O=C(O)c1ccc(OCCCCCCc2cccc(O)c2O)cc1O`, the melting point is 179 to 180 °C.
Consider `COc1cc2c(cc1OC)/C(=C/c1cc(OC)c(OC)c(OC)c1)N(C(=O)C1CCCCC1)CC2`, for which the melting point fell in the range of 162 to 164 °C.
Take `CCOC(=O)C1=C(COCc2nnc(C)o2)NC(C)=C(C(=O)OC)C1c1cccc(Cl)c1Cl` (centres undefined): the melting point was 118 to 120 °C.
`COc1cc(-c2cc3ccccc3[nH]2)cc(OC)c1O` displayed a melting point of 230 °C.
Then `CC(C)c1cccc(C(C)C)c1N1C(=O)c2cccc3c(Oc4ccc(C(C)(C)CC(C)(C)C)cc4)ccc(c23)C1=O`, with 217 °C; and `NC(=O)CCCN(Cc1ccccc1)Cc1ccccc1`, with 76 to 77 °C; and `Cc1c(C)c(N2C(=O)c3ccccc3C2=O)c(C)c2c1OC(C)(C)C2c1ccc(F)cc1` (centres undefined), with 209 to 211 °C.
As to `CCOC(=O)CNc1ncccc1NC(=O)c1ccccc1OC`, the melting point lay in the range of 111 to 112 °C.
On to `NOCc1cn(C(c2ccccc2)(c2ccccc2)c2ccccc2)nn1`, for which the melting point lay in the range of 144 to 145 °C.
Compound `CC1(C)CC(c2ccc(F)cc2)=C(c2ccc(S(N)(=O)=O)cc2)C1` registered a melting point of 117 to 118 °C.
Then `COc1ccc([N+](=O)[O-])c(Nc2cccc(O)c2)n1`, with 156 to 158 °C.
Compound `CCCC(C)NC(=O)c1ccc(C(=O)Nc2ccccc2NC(=O)OC(C)(C)C)s1` (centres undefined) returned a melting point of 183 °C.
Then `COc1ccc(-c2cnc(NC(=S)Cc3ccccc3)c(Cc3ccccc3)n2)cc1`, with 45 to 47 °C; and `COC(=O)C(CSC(c1ccccc1)c1ccccc1)NC(=O)C(=O)NCCSC(c1ccccc1)c1ccccc1` (centres undefined), with 131 °C; and `COc1ccccc1-c1ccc2cnc(Nc3ccc(=O)[nH]c3)nn12`, with 205 to 207 °C.
On to `CCOC(=O)c1c(CN(CC)CC)nc2sc(C)c(C)c2c1-c1ccc(OC)c(OC)c1`, for which the melting point was in the range of 110 to 111 °C.
Then `CC(=O)OCCc1ccc(NC(=O)CCCCl)cc1`, with 83 °C; and `Oc1ccc2c(c1)CCN(Cc1ccc(-c3ccccc3)cc1)C2`, with 235 to 237 °C; and `COC(=O)c1nn(-c2ccc(I)cc2F)cc(OC)c1=O`, with 160 to 162 °C.
Then `CCCCOC(=O)CS(=O)C(C)c1ccc(-c2ccccc2F)cc1` (centres undefined), with 72 to 74 °C.
For the compound `CCN(CC)CCCNC(=O)C(C)n1cc(-c2ccccc2)c(-c2ccccc2)n1` (centres undefined), the melting point fell in the range of 87 to 89 °C.
For `CCOC(=O)CNC(=O)Nc1ccc(C(=N)NC(=O)OC(C)(C)C)cc1`, the melting point lay in the range of 107 to 110 °C.
The value for `CCOC(=O)c1nccn1Cc1ccccc1N` was 104 to 106 °C; that for `CN(C)C(=O)Cc1nc(-c2ccncc2)nc2c1c1ccc(Cl)cc1n2C` was 231 to 232 °C; that for `NC(=O)C1(c2ccccc2)CCN(Cc2ccccc2)CC1` was 117 to 118 °C.
Turning to `Cc1ccc(-c2ccc3c(c2)C=C(C(=O)Nc2ccc(CN4CCCCC4)cc2)CC(c2ccccc2)O3)cc1` (centres undefined), the melting point lay within 210 to 211 °C.
For `O=C(NC(=O)c1c(F)cccc1F)Nc1cc(C(F)(F)F)c(F)cc1Cl`, the melting point stood at 192 °C.
For `CCOC(=O)C(=O)CC(=O)c1cn(Cc2ccc(F)cc2)c2c(F)cccc2c1=O`, the melting point was 179 to 180 °C.
On to `O=C(O)CP(=O)(O)CCNC(=O)c1ccccc1`, for which the melting point was 54 to 57 °C.
In turn, `CC(=O)Nc1cc(F)ccc1C(=O)NCCN1CCC(n2c(=O)[nH]c3cc(Cl)ccc32)CC1` came in with a melting point of 196 °C.
Compound `COc1ccc(CN(CCN(C)CCCNC(=NCCCOc2cccc(CN3CCCCC3)c2)NC#N)c2ccccn2)cc1` came in with a melting point of 62 to 65 °C.
As for `CC(=O)C(C(=O)Cc1ccccc1)C(=O)NS(=O)(=O)c1ccc(C)cc1` (centres undefined), the melting point worked out at 120 °C.
For `O=C(Nc1ccc(C=C2c3ccccc3CCc3ccccc32)cc1)c1ccncc1`, the melting point worked out at 252 °C.
The compound `CC(C)(C)OC(=O)CC(=O)c1ccc(C#N)s1` yielded a melting point of 78 °C.
Compound `C[C@H]1Cn2c(=O)[nH]c3cc(N)cc(c32)CN1CC1CC1` displayed a melting point of 189 °C.
Take `O=C1CN2C(=O)C(c3ccccc3)c3cccc(c32)N1` (centres undefined): the melting point amounted to 235 °C.
For the compound `O=C(Nc1cc(C(F)(F)F)cc(C(F)(F)F)c1)C1C(=O)C2CCC(CC2)C1=O` (centres undefined), the melting point was in the range of 286 to 288 °C.
The compound `CCOC(=O)Cc1ccnc2c(NC(=O)c3c(Cl)cccc3Cl)cccc12` yielded a melting point of 150 to 152 °C.
Turning to `COc1cnc(N)c2ccccc12`, the melting point was 112 to 114 °C.
As to `COC(=O)c1nc(-c2ccc(Cl)c(OC)c2F)nc(N)c1/C=C/Br`, the melting point lay in the range of 171 to 173 °C.
`Oc1nc(NCc2ccc(F)cc2)nc(Nc2cccc(C(F)(F)F)c2)n1`: the melting point fell in the range of 266 to 268 °C.
Compound `COC(=O)[C@H]1[C@H](N2C(=O)c3ccccc3C2=O)C(=O)N1Cc1ccc(OC)cc1OC` (relative stereo) registered a melting point of 186 to 188 °C.
Then `CCOC(=O)c1cccc(-c2ccc(Cl)c3cc(CBr)sc23)c1`, with 143 to 144 °C.
`CCCCCCCCOc1ccc(-c2ccc(C(C)OC(=O)CCC)cc2)cc1` (single isomer, unassigned; (+)) gave a melting point of 56.9 °C.
Compound `CCC(=O)Nc1ccc2[nH]cc(C3CCN(C)CC3)c2n1` came in with a melting point of 98.9 to 101 °C.
`CC(=O)c1cc(S(=O)(=O)c2cccc(F)c2)ccc1O` came in with a melting point of 164 to 165 °C.
The compound `CC1CC(=O)NN=C1c1ccc(N)c(N)c1` (centres undefined) gave a melting point of 195 to 196 °C.
Then `CCCCCCOc1cc(-c2cccc([N+](=O)[O-])c2)c(OCCCCCC)cc1-c1cccc([N+](=O)[O-])c1`, with 126 to 127 °C.
Turning to `CC(C)(C)NC(=O)NC1(C#N)CCCC1`, the melting point lay within 206 to 207 °C.
On to `CC1(C)SC2C(NC(c3ccccc3)(c3ccccc3)c3ccccc3)C(=O)N2C1c1nnn[nH]1` (centres undefined), for which the melting point lay in the range of 133 to 136 °C.
Then `Nc1c(Br)cc(F)c(Cl)c1F`, with 62 °C; and `CC(C)CCc1nc2ccccn2c(=O)c1-c1ccc(Cl)cc1`, with 146 to 149 °C.
The compound `CC(C)(CC(=O)C(=O)Nc1cc2c(cc1Br)C(=O)OC2)c1ccccc1` yielded a melting point of 148 to 150 °C.
Compound `Cc1ccc([N+](=O)[O-])c(Cl)c1C#N` came in with a melting point of 106 to 107 °C.
In the case of `Cn1c(=O)c2c(nc(C=Cc3cccc(C(F)(F)F)c3)n2C)n(C)c1=O`, the melting point was 232 to 236 °C.
In turn, `O=C(O)c1ccccc1Sc1cccc(OCc2ccc3ccccc3n2)c1` registered a melting point of 169 to 171 °C.
The compound `COc1ccccc1N1CCN(CC(O)CS(=O)c2ccc(F)cc2)CC1` (centres undefined) showed a melting point of 164 to 165 °C.
Turning to `CCCc1nc2c(N)nc3ccccc3c2n1CCCCC(=O)N(C)OC`, the melting point lay within 150 to 151 °C.
The value for `O=CN=C1SCCN1Cc1ccc(Cl)nc1` was 99 to 100 °C; that for `COc1ccccc1-c1cc(NC(=O)C2CCNCC2)ncn1` was 279 to 280 °C; that for `COc1cc2c(cc1OC)CN(c1nc(N)nc3cc(OC)c(OC)cc13)CC2` was 245 °C.
Turning to `C=CCC1COC(CC)(CC(=O)O)c2[nH]c3c(C)c(F)ccc3c21` (centres undefined), the melting point is 138 to 140 °C.
Turning to `CCCC1=CC(C)(C)Oc2c(OCC)cc(Cc3cnc(N)nc3N)cc21`, the melting point lay within 208 to 209 °C.
With `O=c1c(-c2ccccc2)c(Cn2cnc3ccccc32)oc2ccccc12`, the melting point fell in the range of 186 to 191 °C.
Consider `COc1ccc2c(c1)c(CC(=O)OC(C)(C)C)c(C)n2C(=O)c1ccc(Cl)cc1`, for which the melting point lay in the range of 103 to 104 °C.
The value for `O=C1c2ccccc2SCN1CCO[N+](=O)[O-]` was 68 to 69 °C; that for `NC(Cc1ccccc1)C(O)C(O)C(N)Cc1ccccc1` (centres undefined) was 115 to 119 °C; that for `OC1CCCC1Oc1ccc(Oc2ccccc2)cc1` (centres undefined) was 62 to 65 °C.
Then `CC(=O)OCCc1ccccc1S(N)(=O)=O`, with 116 to 118 °C.
The value for `O=C(O)CCCC/C=C/c1ccccc1CO` was 92 to 94.5 °C; that for `COc1ccc2c(c1)c(-c1cc3c(C#N)ccnc3[nH]1)cn2C` was 304 to 305 °C; that for `COCc1nc(N2CCCCC2)ncc1C(=O)OC` was 89 to 92 °C.
`CC(C)N1CCN=C1c1ccccc1C(=O)c1ccc(Cl)cc1` gave a melting point of 114 to 117 °C.
Then `NC(=O)c1cnn(-c2ccc(F)cc2)c1-c1ccncc1`, with 215 to 216 °C; and `CCn1cc(C(=O)O)c(=O)c2cc(F)c(N3CCC(NCC(C)=O)C3)nc21` (centres undefined), with 287 to 289 °C; and `CCOCc1nc2c(N)nc3cccnc3c2n1CCCON=C1CCN(C(C)=O)CC1`, with 162 to 163 °C.
